According to patent US8557853B2, “Aryl fluoroethyl ureas acting as alpha 2 adrenergic agents” (Allergan, Inc., priority 2007, dated 2013):
Like-named read-outs stand apart in the source and are kept apart here.

Experiments:
Type in all cases: cell-based
[1] = target: T1, alpha2B receptor (Homo sapiens, UniProt P18089); experiment: RSAT (Receptor Selection and Amplification Technology) assay, alpha 2B; settings: for Alpha 2B IA: intrinsic activity: ratio of maximal effect of drug to maximal effect of standard full agonist brimonidine (UK14304)
T1 construct: expressed in transfected cells; host or cells: NIH-3T3 cells
T1 sequence (P18089 1-450): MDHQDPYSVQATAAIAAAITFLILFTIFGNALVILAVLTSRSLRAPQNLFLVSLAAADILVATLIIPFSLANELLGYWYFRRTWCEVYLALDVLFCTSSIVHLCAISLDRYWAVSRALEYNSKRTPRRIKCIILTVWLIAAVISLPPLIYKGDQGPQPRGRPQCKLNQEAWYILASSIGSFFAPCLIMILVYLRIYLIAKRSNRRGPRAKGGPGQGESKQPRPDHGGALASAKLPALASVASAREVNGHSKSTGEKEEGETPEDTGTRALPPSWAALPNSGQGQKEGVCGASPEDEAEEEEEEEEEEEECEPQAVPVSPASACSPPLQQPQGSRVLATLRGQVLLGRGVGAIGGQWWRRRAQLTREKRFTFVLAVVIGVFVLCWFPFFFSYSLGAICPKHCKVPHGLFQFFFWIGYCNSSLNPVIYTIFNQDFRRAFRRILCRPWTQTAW
Procedure: (§1) The RSAT assay measures a receptor-mediated loss of contact inhibition that results in selective proliferation of receptor-containing cells in a mixed population of confluent cells. The increase in cell number is assessed with an appropriate transfected marker gene such as ∃-galactosidase, the activity of which can be easily measured in a 96-well format. Receptors that activate the G protein, Gq, elicit this response. Alpha 2 receptors, which normally couple to Gi, activate the RSAT response when coexpressed with a hybrid Gq protein that has a Gi receptor recognition domain, called Gq/i5.
(§2) NIH-3T3 cells are plated at a density of 2×10^6 cells in 15 cm dishes and maintained in Dulbecco's modified Eagle's medium supplemented with 10% calf serum. One day later, cells are cotransfected by calcium phosphate precipitation with mammalian expression plasmids encoding p-SV-β-galactosidase (5-10 μg), receptor (1-2 μg) and G protein (1-2 μg). 40 μg salmon sperm DNA may also be included in the transfection mixture. Fresh media is added on the following day and 1-2 days later, cells are harvested and frozen in 50 assay aliquots. Cells are thawed and 100 μl added to 100 μl aliquots of various concentrations of drugs in triplicate in 96-well dishes. Incubations continue 72-96 hr at 37° C. After washing with phosphate-buffered saline, ∃-galactosidase enzyme activity is determined by adding 200 μl of the chromogenic substrate (consisting of 3.5 mM o-nitrophenyl-β-D-galactopyranoside and 0.5% nonidet P-40 in phosphate buffered saline), incubating overnight at 30° C. and measuring optical density at 420 nm. The absorbance is a measure of enzyme activity, which depends on cell number and reflects a receptor-mediated cell proliferation. The efficacy or intrinsic activity is calculated as a ratio of the maximal effect of the drug to the maximal effect of a standard full agonist for each receptor subtype. Brimonidine, also called UK14304, the chemical structure of which is shown below, is used as the standard agonist for the alpha2A, alpha2B and alpha2C receptors.

[2] = target: T2, alpha2A receptor (Homo sapiens, UniProt P08913); experiment: RSAT (Receptor Selection and Amplification Technology) assay, alpha 2A; settings: for EC50 / Alpha 2A EC50: RSAT, transfected NIH-3T3 cells, "not active" = not active at concentrations less than 10 micromolar; for Alpha 2A IA: intrinsic activity: ratio of maximal effect of drug to maximal effect of standard full agonist brimonidine (UK14304)
T2 construct: expressed in transfected cells; host or cells: NIH-3T3 cells
T2 sequence (P08913 1-465): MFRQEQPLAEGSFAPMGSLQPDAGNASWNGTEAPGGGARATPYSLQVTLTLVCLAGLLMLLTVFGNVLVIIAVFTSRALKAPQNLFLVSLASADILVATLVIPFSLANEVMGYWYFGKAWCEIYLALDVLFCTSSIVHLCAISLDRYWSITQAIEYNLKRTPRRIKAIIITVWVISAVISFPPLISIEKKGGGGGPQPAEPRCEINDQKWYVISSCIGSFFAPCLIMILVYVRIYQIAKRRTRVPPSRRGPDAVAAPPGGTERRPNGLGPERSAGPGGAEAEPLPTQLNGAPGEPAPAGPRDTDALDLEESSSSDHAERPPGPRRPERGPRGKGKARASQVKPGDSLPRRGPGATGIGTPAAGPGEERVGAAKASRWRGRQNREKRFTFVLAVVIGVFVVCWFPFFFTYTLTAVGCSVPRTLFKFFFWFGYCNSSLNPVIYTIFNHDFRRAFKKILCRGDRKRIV
From the text: (§3) The aryl fluoroethyl ureas of the invention are agonists of alpha2 adrenergic receptors. […] Al, 1995, Pharmacol. Toxicol. 76, pp. 308-311 (incorporated herein by reference) and is also described below. Another reference pertinent to this assay is Conklin et al. (1993) Nature 363:274-6, Receptor Selection and Amplification Technology (RSAT) assay, also incorporated herein by reference.
as §1, §2
(§4) The results of the RSAT assay with several exemplary compounds of the invention are disclosed in Table 1 below together with the chemical structures of these compounds. “Not active” means the compounds are not active at concentrations less than 10 micromolar.

[3] = target: T3, alpha2C receptor (Homo sapiens, UniProt P18825); experiment: RSAT (Receptor Selection and Amplification Technology) assay, alpha 2C; settings: for EC50 / Alpha 2C EC50: RSAT, transfected NIH-3T3 cells, "not active" = not active at concentrations less than 10 micromolar; for Alpha 2C IA: intrinsic activity: ratio of maximal effect of drug to maximal effect of standard full agonist brimonidine (UK14304)
T3 construct: expressed in transfected cells; host or cells: NIH-3T3 cells
T3 sequence (P18825 1-462): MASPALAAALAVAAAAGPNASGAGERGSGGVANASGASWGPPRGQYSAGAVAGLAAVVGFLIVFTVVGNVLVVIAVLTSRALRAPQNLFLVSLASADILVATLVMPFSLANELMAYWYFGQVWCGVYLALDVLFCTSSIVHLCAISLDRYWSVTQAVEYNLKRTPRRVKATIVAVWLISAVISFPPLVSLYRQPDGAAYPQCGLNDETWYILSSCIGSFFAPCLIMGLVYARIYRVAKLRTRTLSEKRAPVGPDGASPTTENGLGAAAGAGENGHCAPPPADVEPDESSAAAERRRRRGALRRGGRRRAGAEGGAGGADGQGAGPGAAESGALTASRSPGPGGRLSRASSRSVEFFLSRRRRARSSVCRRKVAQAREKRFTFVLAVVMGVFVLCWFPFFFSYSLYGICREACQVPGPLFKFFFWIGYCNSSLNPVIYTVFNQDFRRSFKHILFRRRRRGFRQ
From the text: as §3, §1, §2, §4

[4] = RSAT, transfected NIH-3T3 cells, "not active" = not active at concentrations less than 10 micromolar, read-out: Alpha 2B EC50

Structure (SMILES)	EC50 [1, 4]	Alpha 2B IA [1]	EC50 [2]	Alpha 2A IA [2]	EC50 [3]	Alpha 2C IA [3]	Alpha 2A EC50 [2]	Alpha 2C EC50 [3]	EC50 [1]
O=C(NCCF)NCc1cccc(Cl)c1F [Compound 1, 1-(3-chloro-2-fluoro-benzyl)-3-(2-fluoro-ethyl)-urea]	124 nM	1.0	1750 nM	0.54	1130 nM	0.71			
O=C(NCCF)NCc1cccc(F)c1 [Compound 4, 1-(3-fluoro-benzyl)-3-(2-fluoro-ethyl)-urea]	221 nM	1.14			368 nM	0.47	not active		
O=C(NCCF)Nc1ccccc1Br [Compound 26, 1-(2-bromo-phenyl)-3-(2-fluoro-ethyl)-urea]	2650 nM	0.33					not active	not active	
O=C(NCCF)NCc1cccc(I)c1 [Compound 9, 1-(2-fluoro-ethyl)-3-(3-iodo-benzyl)-urea]	171 nM	0.76	1480 nM	0.48	302 nM	0.62			
O=C(NCCF)NCc1ccccc1F [Compound 3, 1-(2-fluoro-benzyl)-3-(2-fluoro-ethyl)-urea]	148 nM	1.1			363 nM	0.63	not active		
Cc1cccc(C)c1NC(=O)NCCF [Compound 23, 1-(2,6-dimethyl-phenyl)-3-(2-fluoro-ethyl)-urea]	679 nM	0.75	> 2000 nM	0.61	> 2000 nM	0.43			
Cc1ccccc1NC(=O)NCCF [Compound 22, 1-(2-fluoro-ethyl)-3-o-tolyl-urea]	1540 nM	0.92	> 2000 nM	0.38	> 2000 nM	0.48			
O=C(NCCF)NCc1ccccc1C(F)(F)F [Compound 8, 1-(2-fluoro-ethyl)-3-(2-trifluoromethyl-benzyl)-urea]	569 nM	0.8			950 nM	0.93	not active		
Cc1ccc(CNC(=O)NCCF)o1 [Compound 40, 1-(2-fluoro-ethyl)-3-(5-methyl-furan-2-ylmethyl)-urea]		0.83			2630 nM	0.56	not active		968 nM
Cc1ccnc(CNC(=O)NCCF)c1 [Compound 39, 1-(2-Fluoro-ethyl)-3-(4-methyl-pyridin-2-ylmethyl)-urea]	343 nM	0.77	2170 nM	0.36	1560 nM	0.61			
O=C(NCCF)Nc1cccc2c1CCC2 [Compound 29, 1-(2-fluoro-ethyl)-3-indan-4-yl-urea]	1220 nM	0.89	940 nM	0.37	2550 nM	0.63			
O=C(NCCF)NCc1cccc2c1OCO2 [Compound 31, 1-benzo(1,3)dioxol-4-ylmethyl-3-(2-fluoro-ethyl)-urea]	119 nM	1.0	> 2000 nM	0.48	2020 nM	1.2			
O=C(NCCF)NC(c1ccccc1)c1ccccc1 [Compound 32, 1-benzhydryl-3-(2-fluoro-ethyl)-urea]	325 nM	0.58					not active	not active	

Continued by falling EC50 [1, 4], values first:

EC50 [1, 4]	Alpha 2B IA [1]	EC50 [2]	Alpha 2A IA [2]	EC50 [3]	Alpha 2C IA [3]	Alpha 2A EC50 [2]	Alpha 2C EC50 [3]	Structure (SMILES)	EC50 [1]
115 nM	0.33					not active	not active	O=C(NCCF)Nc1ccc2c(c1)CCC2 [Compound 21, 1-(2-fluoro-ethyl)-3-indan-5-yl-urea]	
106 nM	0.9			1090 nM	0.66	not active		O=C(NCCF)NCc1cccc(C(F)(F)F)c1Cl [Compound 11, 1-(2-chloro-3-trifluoromethyl-benzyl)-3-(2-fluoro-ethyl)-urea]	
96 nM	0.86	1010 nM	0.59	192 nM	0.72			O=C(NCCF)NCc1cccc(I)c1I [Compound 13, 1-(2-fluoro-ethyl)-3-(2,3-diiodo-benzyl)-urea]	
88 nM	0.91			446 nM	0.86	not active		O=C(NCCF)NCc1cccc(Cl)c1Cl [Compound 10, 1-(2,3-dichloro-benzyl)-3-(2-fluoro-ethyl)-urea]	
66 nM	0.99	302 nM	0.63	513 nM	0.64			C[C@H](NC(=O)NCCF)c1ccccc1 [Compound 33, (−)-(S)-1-(2-Fluoro-ethyl)-3-(1-phenyl-ethyl)-urea]	
40 nM	1.25	678 nM	0.79	685 nM	0.93			COc1c(C)cccc1CNC(=O)NCCF [Compound 17, 1-(2-fluoro-ethyl)-3-(2-methoxy-3-methyl-benzyl)-urea]	
27 nM	1.14	147 nM	0.51	82 nM	0.83			O=C(NCCF)NCc1cccc2c1OCC2 [Compound 20, 1-(2,3-dihydro-benzofuran-7-ylmethyl)-3-(2-fluoro-ethyl)-urea]	
8.5 nM	0.85	366 nM	0.34	101 nM	0.66			Cc1cccc(CNC(=O)NCCF)c1Cl [Compound 14, 1-(2-chloro-3-methyl-benzyl)-3-(2-fluoro-ethyl)-urea]	
